# Laboratory results: US20110086103A1, “NOVEL MANDELATE SALT OF FESOTERODINE” (ACTAVIS GROUP PTC EHF, priority 2008, published 2011)
# Structures can show the parent of a compound that is named as a salt.
# What was measured:
# [1] = Moisture absorption during filtration of the salt; assay type: physicochemical
# [2] = Stability of solid state form (polymorphic stability by P-XRD on storage); assay type: physicochemical; conditions: stored 3 months in self-sealing LDPE bag, normal atmospheric conditions, room temperature
# Method: The X-Ray powder diffraction was measured by an X-ray powder Diffractometer equipped with CuKα-radiations (40 kV, 40 mA) in wide-angle X-ray Diffractometer of BRUKER axs, D8 ADVANCE. The sample was analyzed using the following instrument parameters: measuring range 3-45° 2-theta; step width=0.01579°; and measuring time per step=0.11 sec. Fesoterodine mandelate was prepared according to the process exemplified in Example 1 and was packed in a self-sealing low-density polyethylene (LDPE) bag. The material was stored for 3 months under normal atmospheric conditions at room temperature and checked for polymorphic stability.
moisture absorption [1],polymorphic stability (maintenance of the original P-XRD pattern) [2],SMILES
absorbs moisture,–,"CC(C)C(=O)Oc1ccc(CO)cc1[C@H](CCN(C(C)C)C(C)C)c1ccccc1 [fumarate salt, fesoterodine fumarate, reference compound]"
does not absorb moisture,retain its polymorphic form,"CC(C)C(=O)Oc1ccc(CO)cc1[C@H](CCN(C(C)C)C(C)C)c1ccccc1.O=C(O)C(O)c1ccccc1 [Fesoterodine mandelate, mandelate salt of 2-[(1R)-3-[bis(1-methylethyl)amino]-1-phenylpropyl]-4-hydroxymethylphenyl isobutyrate]"
